Experimental findings from PubChem BioAssay (NCI) are described below.

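Dose response: 5 concentrations. Exposure: 48 h. Format: 96-well plates. Endpoint: linear interpolation; highest concentration if not reached. GI50 = concentration required for 50% inhibition of growth. The concentration for full growth arrest is given as TGI.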 Where only a bound is given, the exact number is not on record here.

Among the test systems are 786-0 renal; COLO 205 colon; EKVX NSCLC; HCC-2998 colon; HCT-15 colon; HOP-62 NSCLC; KM12 colon; MCF7 breast; NCI-H226 lung.
Common to all, as to assay: NCI-60 cell line screen, 48 h

With `Clc1cc(Cl)cc(N2N=C(c3cccc(Nc4ccncc4)c3)CC2c2ccc3c(c2)OCO3)c1` (stereo unspecified), the GI50 in the experiment on 786-0 renal was 1.69 µM; with COLO 205 colon it was 1.87 µM; in the experiment with EKVX NSCLC, 1.61 µM; in the experiment with HCC-2998 colon it was 1.84 µM; in the experiment on HCT-15 colon, 1.76 µM; in the experiment with HOP-62 NSCLC, 1.79 µM. Further, the figures for the GI50 in the experiment with KM12 colon, with MCF7 breast and with NCI-H226 lung were 1.78 µM, 1.89 µM and 1.91 µM, respectively. Also, the TGI worked out at 3.14 µM with 786-0 renal; 3.88 µM in the experiment with COLO 205 colon; 3.2 µM with EKVX NSCLC; 3.37 µM in the experiment with HCC-2998 colon; 3.44 µM in the experiment on HCT-15 colon; 3.64 µM in the experiment with HOP-62 NSCLC. Further, the TGI with KM12 colon worked out at 3.35 µM; in the experiment on MCF7 breast, 4.17 µM; in the experiment on NCI-H226 lung, 4.3 µM.

With `NCCNCc1c2ccccc2c(CNCCN)c2ccccc12`, the TGI is 53.4 µM in the experiment with 786-0 renal; above 100 µM with COLO 205 colon; 50.1 µM in the experiment with EKVX NSCLC; 23.3 µM in the experiment on HCC-2998 colon; above 100 µM with HCT-15 colon; 69.3 µM in the experiment with HOP-62 NSCLC. This compound also gave a TGI in the experiment with KM12 colon of 62.6 µM.

As to `Cc1cc(C)nc(NS(=O)(=O)c2ccc(Nc3c4ccc(Cl)cc4nc4c(C(=O)NCCN(C)C)cccc34)cc2)n1`, the TGI with 786-0 renal, with COLO 205 colon, in the experiment with EKVX NSCLC, in the experiment on HCC-2998 colon, with HCT-15 colon and with HOP-62 NSCLC was above 100 µM throughout. Also, the TGI in the experiment with KM12 colon and in the experiment on NCI-H226 lung was above 100 µM throughout.

For the compound `COC(=O)C(Cc1nc2ccccc2nc1C)/C(=N\NC(N)=O)C(=O)Nc1cccc([N+](=O)[O-])c1` (stereo unspecified), the TGI with 786-0 renal, with COLO 205 colon, with EKVX NSCLC, in the experiment on HCC-2998 colon, with HCT-15 colon and with HOP-62 NSCLC was above 100 µM throughout. Also, the TGI with KM12 colon and in the experiment with NCI-H226 lung was above 100 µM throughout.

For `COc1ccccc1NC(=O)c1nc2ccc([N+](=O)[O-])cc2nc1C`, the TGI in the experiment with 786-0 renal, in the experiment with COLO 205 colon, in the experiment on EKVX NSCLC, in the experiment on HCC-2998 colon, in the experiment with HCT-15 colon and with HOP-62 NSCLC was above 100 µM each time. The TGI in the experiment with KM12 colon and in the experiment with NCI-H226 lung was above 100 µM each time.

Regarding `CCNC(=O)O/N=C1\CCC2[C@@H]3CC=C4C[C@@H](OC5CCCCO5)CC[C@]4(C)C3CC[C@]12C` (stereo partly specified), the TGI in the experiment on 786-0 renal was 6.48 µM; in the experiment on EKVX NSCLC, 5.78 µM; with HCC-2998 colon, 8.51 µM; in the experiment on HOP-62 NSCLC it was above 100 µM; in the experiment on KM12 colon it was 17 µM.

For the compound `Clc1ccc(-c2c(C3=NCCCN3)nnn2-c2ccccc2)cc1`, the TGI with 786-0 renal, in the experiment with COLO 205 colon, with EKVX NSCLC, in the experiment on HCC-2998 colon, in the experiment on HCT-15 colon and with HOP-62 NSCLC was above 100 µM each time. In addition, the TGI in the experiment on KM12 colon and with NCI-H226 lung was above 100 µM in each case.

Consider `C=C[C@]1(C)CCC2=C(CCC3C2(C)CCC[C@@]3(C)COC(C)=O)C1` (stereo partly specified), for which the TGI was 31.8 µM in the experiment on 786-0 renal; 30 µM in the experiment with COLO 205 colon; 36.8 µM in the experiment on EKVX NSCLC; 31.8 µM in the experiment on HCC-2998 colon; 30.8 µM in the experiment on HCT-15 colon; 40.2 µM in the experiment with HOP-62 NSCLC. Also, the TGI was found to be 34.7 µM in the experiment on KM12 colon and 34.6 µM with NCI-H226 lung.

Consider `O=C1CCSC2=C1SCc1sccc12`, for which the TGI in the experiment with 786-0 renal, with COLO 205 colon, in the experiment on EKVX NSCLC, in the experiment on HCC-2998 colon, in the experiment on HCT-15 colon and with HOP-62 NSCLC was above 100 µM throughout. Besides, the TGI in the experiment with KM12 colon is above 100 µM.

`COc1ccc2nc3cc(Cl)ccc3c(Sc3ccc([N+](=O)[O-])cc3)c2c1`: the GI50 in the experiment on 786-0 renal, in the experiment with COLO 205 colon, in the experiment on EKVX NSCLC, in the experiment on HCT-15 colon, with HOP-62 NSCLC and with KM12 colon was above 100 µM each time. In the experiment with NCI-H226 lung, the GI50 was above 100 µM. The TGI in the experiment with 786-0 renal was above 100 µM; with COLO 205 colon, above 100 µM; with EKVX NSCLC, above 100 µM; with HCC-2998 colon, above 10 µM; in the experiment with HCT-15 colon, above 100 µM; with HOP-62 NSCLC, above 100 µM. For the same compound, the TGI with KM12 colon and in the experiment with NCI-H226 lung was above 100 µM throughout.

On to `C=C(C(=C)P(=S)(c1ccccc1)c1ccccc1)P(=S)(c1ccccc1)c1ccccc1`, for which the TGI in the experiment with 786-0 renal, with COLO 205 colon, in the experiment with EKVX NSCLC, in the experiment on HCC-2998 colon, with HCT-15 colon and in the experiment with HOP-62 NSCLC was above 100 µM throughout. Further, the TGI in the experiment with KM12 colon is above 100 µM.

In the case of `Nc1cc(=O)n(-c2ccccc2)c(=S)n1-c1ccccc1`, the TGI in the experiment on 786-0 renal, in the experiment on COLO 205 colon, with EKVX NSCLC, with HCC-2998 colon, in the experiment with HCT-15 colon and in the experiment on HOP-62 NSCLC was above 100 µM in each case. In addition, the TGI in the experiment on KM12 colon and with NCI-H226 lung was above 100 µM each time.

For `COc1ccc(C(=O)C(c2ccc(OCc3ccccc3)cc2)c2ccc(OCc3ccccc3)cc2)cc1`, the TGI in the experiment with 786-0 renal, in the experiment on COLO 205 colon, in the experiment with EKVX NSCLC, with HCC-2998 colon, in the experiment on HCT-15 colon and with HOP-62 NSCLC was above 100 µM throughout. Also, the TGI with KM12 colon and with NCI-H226 lung was above 100 µM each time.

In the case of `COc1cc([N+](=O)[O-])c(OC)cc1-c1nc2sc(Cl)cn2c1/C=N/NC1=NCCN1`, the GI50 is 0.487 µM in the experiment with 786-0 renal; 1.33 µM in the experiment on COLO 205 colon; 2.33 µM in the experiment on EKVX NSCLC; 0.597 µM with HCC-2998 colon; 1.64 µM with HCT-15 colon; 1.2 µM in the experiment with HOP-62 NSCLC. In addition, the GI50 was 0.833 µM in the experiment with KM12 colon and 0.431 µM in the experiment with MCF7 breast. In addition, the TGI with 786-0 renal is 1.13 µM; in the experiment on COLO 205 colon, 3.7 µM; in the experiment on EKVX NSCLC it was 5.64 µM; with HCC-2998 colon it was 1.22 µM; in the experiment on HCT-15 colon, 2.99 µM; with HOP-62 NSCLC, 2.53 µM. Moreover, the TGI in the experiment with KM12 colon is 2.49 µM; in the experiment with MCF7 breast it was above 100 µM.
